Test results published in patent US12636260B2, “Application of α-asarone in preparation of medicine for preventing or treating hemorrhagic stroke” (CHENGDU XINRUI TAIKANG TECHNOLOGY CO., LTD., priority 2021, dated 2026).

Tests used:
mouse bone marrow cells = experiment: Mouse bone marrow micronucleus test by flow cytometry; type: in vivo; settings: mice
Procedure: Experimental grouping and administration: The animals were randomly divided into five groups with 10 […] in each group: blank control group (blank group, administrated blank emulsion with the same volume as the high-dose group of α-asarone), cyclophosphamide group (CTX group, 40 mg/kg), low dose of α-asarone emulsion injection group (prepared by preparation embodiment 7, 100 mg/kg/day, ASA-L group), medium dose of α-asarone emulsion injection group (prepared by preparation embodiment 7, 150 mg/kg/day, ASA-M group), and high dose of α-asarone emulsion injection group (prepared from preparation embodiment 7, 200 mg/kg/day, ASA-H group).
All drugs were administrated through the tail vein for continuous 4 days except for the single injection of the positive control drug cyclophosphamide (CTX) 24 hours before sampling. After 24 hours of the last administration, the mice were sacrificed to separate both femurs. The femoral bone marrow cells were washed with PBS and filtered by 300 mesh nylon cell sieves to prepare a single-cell suspension. The suspension was centrifuged at 1650 rpm for 5 min, and the cell concentration was adjusted to 5×10^6 cells/mL by PBS resuspension. For each sample, 100 μL of the cell suspension was incubated with 400 μL of the PIPES-PI solution (10 mL of PIPES solution (concentration of 3.5 mg/mL)+0.5 mg PI+0.01 mL Triton X-100 (concentration of 0.1%)), gently blown and mixed, at 4° C. in the dark for 30 min and detected by a flow cytometry. […] The higher the value, the stronger the genotoxicity.

SAH rats [1] = experiment: Secondary epilepsy in SAH rats (Racine score, seizures); type: in vivo, rat; settings: within 24 hours after SAH, group N, nimodipine injection 1 mg/kg intraperitoneally
Procedure: The experimental materials, grouping, modeling method and administration protocol were the same as those in the effect embodiment 1, and the seizures of rats in each group were observed within 24 hours after SAH.

SAH rats [2] = experiment: Short-term neurological function of SAH rats (Garcia score, beam balance test, bleeding score); type: in vivo, rat; settings: for Beam balance score / Garcia score: SAH model, 24 hours after modeling
Procedure: (§1) Experimental grouping: At 2 h after endovascular perforation or collagenase VII injection, Zea Longa score was used to evaluate the neurological function of rats. Successful model rats were randomly divided into groups for administration.
(§2) All groups were administrated through the tail vein injection except for group N administrated intraperitoneally.
The rats were fasted for 12 hours before operation, and were anesthetized with 4% isoflurane, and kept anesthetized with 2% isoflurane. The animals were fixed in the supine position with the body temperature maintained at about 37° C. A traditional skin incision of the neck was performed along the midline. The muscle and fascia were separated along the medial margin of the sternocleidomastoid muscle to expose the right side, then the common carotid artery (CCA), external carotid artery (ECA) and internal carotid artery (ICA) were bluntly separated with disposal lines placed at CCA proximal end, ICA and ECA for use. The CCA proximal end and the ECA were ligated, and the ICA was temporarily clamped with an arterial clip, and then a small hole was poked with a needle at about 4 mm from the bifurcation at the CCA. A nylon suture was introduced into the CCA from the hole and advanced through the ICA after releasing the arterial clip, and the suture was inserted intracranially. […] The suture moved forward for roughly 2 mm to perforate the artery followed by instant withdraw, and then the suture was completely removed and the ICA was ligated. Finally, the incision was cleaned with normal saline and sutured. The sham group conducted the same procedure as the model group except for the perforation. After awakening from anesthesia, the animals were raised normally.
The SAH severity was grading after rat's euthanasia, i.e., completing the evaluation of short-term neurological function. The score was determined by the amount of subarachnoid hemorrhage on the surface of basal cistern and brain tissue which was divided into six parts by the Willis ring composed of basilar artery, anterior cerebral artery, internal carotid artery, posterior cerebral artery and posterior communicating artery. Each part was graded from 0 to 3 points according to the amount of subarachnoid blood clots, i.e., 0 points: no subarachnoid blood; 1 point: a small amount of subarachnoid blood; 2 points: moderate amount of blood clots with recognizable arteries; 3 points: blood clots cover all arteries in the area. All 6 part scores were added up for a total of 18 points. According to the final score, SAH hemorrhage severity could be divided into mild subarachnoid hemorrhage (0 to 7 points), moderate subarachnoid hemorrhage (8 to 12 points), and severe subarachnoid hemorrhage (13 to 18 points). The moderate to severe SAH models were selected for statistical analysis (score≥8 points).
(§3) According to Zea Longa's neurological function score, the rats were scored 2 hours after the operation when they were awake from anesthesia. Successful model rats with a score of 1 to 3 points were enrolled in the group: • 0 points: no neurological deficits with normal activity; • 1 point: inability to fully extend the contralateral forepaw; • 2 points: the animal appears to turn in circles when crawling; • 3 points: the animal tends to lean to the hemiplegic side; • 4 points: the animal cannot walk spontaneously or loses consciousness. 1.4 Assessment of Short-Term Neurological Function
The neurological function of rats was comprehensively evaluated with Garcia score and beam balance test 24 hours after modeling. The criteria of Garcia score are shown in Table 1, which evaluates the movement, sensation, climbing and limb symmetry of the rats with the score range of 3 to 18 points. The lower the score, the more severe the neurological injury. The criteria of the beam balance test are shown in Table 2, which evaluated the proprioception and body coordination of rats with the score range of 0 to 6 points. […]

ICH rats = experiment: Short-term neurological function of ICH rats (Garcia score, beam balance test); type: in vivo, rat; settings: for Beam balance score / Garcia score: ICH model, 24 hours after modeling
Procedure: as §1, §2
The rats were fasted for 12 hours before operation, and were anesthetized with 4% isoflurane, and kept anesthetized with 2% isoflurane. The animals were fixed in the prone position in a stereotaxic apparatus with the body temperature maintained at about 37° C. A traditional skin incision of the head was prepared along the midline. According to the stereotaxic atlas of the rat brain translated by Zhuge Qichao (George Paxinos, Charles Watson, Paxinos, Watson, & Zhuge Qichao. The Rat Brain in Stereotaxic Coordinates [M]. People's Medical Publishing House, 2005), the right caudate nucleus of the rat was determined as 0.0 mm anterior, 3.0 mm lateral to the bregma, and 5.5 mm ventral to the cortical surface. After labeling, we drilled an open window in the skull, and 1 μL of 0.5 U collagenase VII was slowly injected for 5 minutes with a microinjector. After the injection, the needle was stagnated for 8 minutes and slowly withdrawn. Then the scalp was sutured after the burr hole of skull was sealed with a sterile bone wax, and the rats were returned to the cage for normal feeding. The sham group conducted the same procedure as the model group, but received an equal volume of physiological saline into the caudate nucleus.
as §3
The neurological function of rats was comprehensively evaluated with Garcia score and beam balance test 24 hours after modeling. The criteria of Garcia score are shown in Table 1, which evaluates the movement, sensation, climbing and limb symmetry of the rats with the score range of 3 to 18 points. The lower the score, the more severe the neurological injury. The criteria of the beam balance test are shown in Table 2, which evaluated the proprioception and body coordination of rats with the score range of 0 to 6 points. The higher the score, the more severe the neurological injury. Scoring was done independently by a technician blinded to the modeling and drug administration.

SAH rats [3] = experiment: Long-term survival rate of SAH rats; type: in vivo, rat; settings: nimodipine injection 1 mg/kg intraperitoneally, 2 hours after modeling then once a day for 14 days
Procedure: The experimental materials, grouping and modeling methods were the same as those in effect embodiment 1. The rats were immediately administrated 2 hours after SAH modeling according to the grouping administration protocol and continued to be administrated once a day for 14 days thereafter, and the survival of the rats was observed and recorded for 14 days. The mortality rate within 24 hours in group S was as high as 53.8%.

[4] = CTX group, 40 mg/kg, single injection 24 hours before sampling
[5] = group N, nimodipine injection 1 mg/kg intraperitoneally
[6] = group V, vinpocetine injection 2 mg/kg tail vein
[7] = group B, β-asarone emulsion injection 20 mg/kg tail vein

## O=P1(N(CCCl)CCCl)NCCCO1 (centres unmarked) [CTX, cyclophosphamide, reference compound]
Mouse bone marrow cells; [4]
  MNPCE: 0.86 ± 0.25
  PCE: 36.46 ± 8.01
  fMNPCE (‰): 24.36 ± 8.03 ‰
Mouse bone marrow cells; cyclophosphamide 40 mg/kg (P<0.01)
  micronucleus rate compared to the blank emulsion group: significantly higher

## COCCOC(=O)C1=C(C)NC(C)=C(C(=O)OC(C)C)C1c1cccc([N+](=O)[O-])c1 (centres unmarked) [nimodipine, reference compound]
SAH rats [1]
  Clonic seizures (%): 18.8%
  Racine score: 0.81 ± 1.56
  Tonic seizures (%): 6.2%
SAH rats [2]; [5]
  Beam balance score: 3.01
  Garcia score: 11.33
ICH rats; [5]
  Beam balance score: 3.89
  Garcia score: 8.92
SAH rats [3]; Day 14, group N
  Survival rate: 58.3%
SAH rats [3]; group N
  24-hour mortality rate: 25.0%

## CCOC(=O)C1=C[C@]2(CC)CCCN3CCc4c(n1c1ccccc41)[C@@H]32 [vinpocetine, reference compound]
SAH rats [2]; [6]
  Beam balance score: 3.54
  Garcia score: 10.30
ICH rats; [6]
  Beam balance score: 3.27
  Garcia score: 10.56

## C/C=C\c1cc(OC)c(OC)cc1OC [β-asarone, reference compound]
SAH rats [2]; SAH model rats, group B, β-asarone emulsion injection 20 mg/kg
  effect against the neurological impairment: no obvious effect
SAH rats [2]; [7]
  Beam balance score: 3.70
  Garcia score: 10.51
ICH rats; ICH model rats, group B, β-asarone emulsion injection 20 mg/kg
  effect against the neurological impairment: no obvious effect
ICH rats; [7]
  Beam balance score: 3.76
  Garcia score: 9.12
